Source: patent publication US20260083864A1, “CONTRAST AGENTS FOR USE IN DIAGNOSTIC COMPUTED TOMOGRAPHY IMAGING” (Bayer Aktiengesellschaft, priority 2022, published 2026)

Experiments:
[1] = Relaxivity measurements at 1.41 T in human plasma; type: physicochemical; details: 37° C., normalized to Gd
Protocol: (§1) The T1 relaxation times were determined using the standard inversion recovery (IR) method with a fixed relaxation delay of at least 5×T1. The variable inversion time (TI) was calculated automatically by the standard software of the MiniSpec mq60 (8 steps). The T2 measurements were performed by using a Carr-Purcell-Meiboom-Gill (CPMG) pulse sequence, applying a relaxation delay of at least 5×T1.
Each relaxivity measurement was performed using three different Gd concentrations (3 concentrations between 0.05 and 2 mM).
(§2) The relaxivities n (where i=1, 2) were calculated based on the measured relaxation rates Ri in water and plasma: […]

[2] = Partition coefficient (log P butanol/buffer); type: physicochemical; details: 1-butanol / 50 mM Tris-HCl, pH 7.4, room temperature
[3] = target: T1, OATP1B3 (Homo sapiens, UniProt Q9NPD5); assay: Uptake into stable transfected OATP1B3 HEK 293 cells; type: cell-based; details: for Uptake into OATP1B3-HEK 293 cells: 40 min incubation, relative to RC1 (Gd-EOB-DTPA); for Inhibition Rifampicine: uptake into OATP1B3-HEK 293 cells
T1 sequence (Q9NPD5 1-702): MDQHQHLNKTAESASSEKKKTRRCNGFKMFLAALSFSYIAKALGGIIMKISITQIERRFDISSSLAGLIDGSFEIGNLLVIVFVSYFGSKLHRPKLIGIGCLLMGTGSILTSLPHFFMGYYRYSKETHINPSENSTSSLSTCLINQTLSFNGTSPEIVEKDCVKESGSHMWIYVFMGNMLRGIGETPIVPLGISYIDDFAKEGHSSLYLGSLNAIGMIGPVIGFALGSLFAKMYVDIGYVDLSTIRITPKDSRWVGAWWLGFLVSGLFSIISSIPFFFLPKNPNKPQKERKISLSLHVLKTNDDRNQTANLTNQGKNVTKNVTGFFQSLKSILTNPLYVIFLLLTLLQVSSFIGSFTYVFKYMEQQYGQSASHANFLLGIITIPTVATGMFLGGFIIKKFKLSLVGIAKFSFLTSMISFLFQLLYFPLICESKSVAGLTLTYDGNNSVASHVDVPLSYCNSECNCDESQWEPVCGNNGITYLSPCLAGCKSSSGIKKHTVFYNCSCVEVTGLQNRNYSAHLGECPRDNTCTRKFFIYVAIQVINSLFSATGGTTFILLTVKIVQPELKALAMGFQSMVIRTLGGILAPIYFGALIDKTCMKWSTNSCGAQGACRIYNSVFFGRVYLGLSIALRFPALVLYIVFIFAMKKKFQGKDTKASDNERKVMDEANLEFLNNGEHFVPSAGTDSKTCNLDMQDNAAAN
Protocol: (§3) Cryopreserved cells were shortly thawed in water bath and diluted in 10 mL warm culture medium (37° C.). After medium change the cells were grown for 3d in a 25 cm^2 cell culture flask. After 3 to 5d the cells were transferred into 75 cm^2 flasks. […] All test items were prepared in transport buffer at a final concentration of 100 µM from stock solutions (180 to 500 mM concentration). The OATP1B3 HEK 293 cells were incubated with test solutions (test item in transport buffer 500 μL) for 40 min on a thermoshaker without shaking (PHMP, Fa. Grant Bio). Triplicates were performed for each test item. After incubation the cells were washed with 2 mL of cold PBS (+) buffer (Dulbeccos PBS+, Fa. Gibco). […] As a reference standard Gd-EOB-DTPA (gadoxetate) is used in the same well plate.

[4] = tested on: freshly isolated rat hepatocytes; assay: Uptake into freshly isolated rat hepatocytes; details: for Uptake rat hepatocytes: 100 μmol Gd/L, 10 min, 37° C., relative to RC1 (Gd-EOB-DTPA); for Inhibition Rifampicine: rat hepatocyte uptake, test item and Rifampicine 1:1, each 100 μM
[5] = target: T2, OATP1B1 (Homo sapiens, UniProt Q9Y6L6); assay: Uptake into stable transfected OATP1B1 HEK 293 cells; type: cell-based; details: for Uptake into OATP1B1-HEK 293 cells: 40 min incubation, relative to RC1 (Gd-EOB-DTPA); for Inhibition Rifampicine: uptake into OATP1B1-HEK 293 cells
T2 sequence (Q9Y6L6 1-691): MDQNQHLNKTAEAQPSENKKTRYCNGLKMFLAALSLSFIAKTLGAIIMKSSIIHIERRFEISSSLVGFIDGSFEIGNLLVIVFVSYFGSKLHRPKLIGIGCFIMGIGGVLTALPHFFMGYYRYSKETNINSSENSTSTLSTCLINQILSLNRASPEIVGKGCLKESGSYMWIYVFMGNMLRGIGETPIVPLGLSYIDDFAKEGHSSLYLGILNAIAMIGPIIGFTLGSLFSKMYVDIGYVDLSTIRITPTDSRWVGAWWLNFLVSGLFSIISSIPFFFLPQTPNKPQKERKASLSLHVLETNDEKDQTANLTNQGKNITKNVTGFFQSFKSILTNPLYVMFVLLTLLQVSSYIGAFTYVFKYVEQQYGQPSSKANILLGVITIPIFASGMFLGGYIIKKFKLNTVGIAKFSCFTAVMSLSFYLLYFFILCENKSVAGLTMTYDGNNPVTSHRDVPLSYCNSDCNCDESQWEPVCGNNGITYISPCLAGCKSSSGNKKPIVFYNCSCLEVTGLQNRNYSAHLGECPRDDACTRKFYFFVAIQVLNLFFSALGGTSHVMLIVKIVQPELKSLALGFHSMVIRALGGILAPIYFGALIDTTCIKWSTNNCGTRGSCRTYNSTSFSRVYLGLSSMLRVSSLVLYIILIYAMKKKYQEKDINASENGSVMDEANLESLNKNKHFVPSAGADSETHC
Protocol: as §3, with “M” for “µM”, “OATP1B1” for “OATP1B3”, “L)” for “μL)”

[6] = Relaxivity measurements at 1.41 T in water; type: physicochemical; details: 37° C., normalized to Gd
Protocol: as §1, with “Relaxivity measurements at 1.41 T were performed using a MiniSpec mq60 spectrometer (Bruker Analytik, Karlsruhe, Germany) operating at a resonance frequency of 60 MHz and a temperature of 37° C. The T1” for “The T1”
Each relaxivity measurement was performed using three different Gd concentrations (3 concentrations between 0.05 and 2 mM). […] Human plasma preparation: For each experiment fresh blood was taken from a volunteer using 10 mL citrate-tubes (Sarstedt S-Monovette 02.1067.001, 10 mL, Citrate). The 10 mL citrate-tubes were carefully inverted 10 times to mix blood and anticoagulant and centrifuged for 15 min at 1811 g at RT (Eppendorf, Centrifuge 5810R).
as §2

[7] = Water solubility in aqueous buffer; details: aqueous buffer 10 mM Tris-HCl, pH 7.4, 20° C.
Protocol: The solid compounds were added stepwise to the buffer solution. More substance is added once all the suspended material is dissolved until an equilibrium between undissolved and dissolved substance is reached. The suspension was mixed using a shaker (Heidolph Reax 2000) and treated 5 min in an ultrasound bath (Bandelin, Sonorex Super RK255H).

Row | SMILES | r1 human plasma [1] [L/mmol/s] | Log P (partition coefficient butanol/buffer) [2] | Uptake into OATP1B3-HEK 293 cells [3] | Inhibition Rifampicine [3] [% inhibition] | Uptake rat hepatocytes [4] | Inhibition Rifampicine [4] [% inhibition] | Uptake into OATP1B1-HEK 293 cells [5] | Inhibition Rifampicine [5] [% inhibition] | r1 water [6] [L/mmol/s] | Solubility [7] [mM]
1 | CCOCCOCCOCCOc1ccc(C[C@H](C(=O)O)N2CCN(CC(=O)[O-])CCN(CC(=O)[O-])CCN(CC(=O)[O-])CC2)cc1.[Gd+3] [Example 12, gadolinium 2,2′,2″-{10-[(1R)-1-carboxy-2-(4-{2-[2-(2-ethoxyethoxy)ethoxy]ethoxy}phenyl)ethyl]-1,4,7,10-tetraazacyclododecane-1,4,7-triyl}triacetate] | 6.6 | −1.68 | 24 % of RC1 | 87 | 53 % of RC1 | 97 | 86 % of RC1 | 0 | 4.3 | 
2 | CCCCOc1ccc(CCCC[C@@H](C(=O)O)N2CCN([C@@H](CO)C(=O)[O-])CCN([C@@H](CO)C(=O)[O-])CCN([C@@H](CO)C(=O)[O-])CC2)cc1.[Gd+3] [Example 9, gadolinium (2S,2′S,2″S)-2,2′,2″-{10-[(1S)-5-(4-butoxyphenyl)-1-carboxypentyl]-1,4,7,10-tetraazacyclododecane-1,4,7-triyl}tris(3-hydroxypropanoate)] |  | 0.26 | 124 % of RC1 | 95 | 54 % of RC1 | 46 | 498 % of RC1 | 73 |  | 2
3 | CCOc1ccc(CCCC[C@@H](C(=O)O)N2CCN(CC(=O)[O-])CCN(CC(=O)[O-])CCN(CC(=O)[O-])CC2)cc1.[Gd+3] [Example 27, gadolinium 2,2′,2″-{10-[(1S)-1-carboxy-5-(4-ethoxyphenyl)pentyl]-1,4,7,10-tetraazacyclo-dodecane-1,4,7-triyl}triacetate] |  | −0.41 | 24 % of RC1 | 96 | 69 % of RC1 | 98 | 284 % of RC1 | 93 |  | >9
4 | CCOCCOCCOCCOc1ccc(C[C@@H](C(=O)O)N2CCN(CC(=O)[O-])CCN(CC(=O)[O-])CCN(CC(=O)[O-])CC2)c(OCCOCCOCCOCC)c1.[Gd+3] [Example 40, gadolinium 2,2′,2″-{10-[(1S)-2-(2,4-bis {2-[2-(2-ethoxyethoxy)ethoxy]ethoxy}phenyl)-1-carboxyethyl]-1,4,7,10-tetraazacyclododecane-1,4,7-triyl}triacetate] | 7.3 | −1.43 |  |  | 20 % of RC1 | 88 |  |  | 5.4 | 
5 | CCOCCOCCOc1ccc(CCC[C@@H](C(=O)O)N2CCN([C@H](CO)C(=O)[O-])CCN([C@H](CO)C(=O)[O-])CCN([C@@H](CO)C(=O)[O-])CC2)cc1.[Gd+3] [Example 49, gadolinium (2R,2′R)-2,2′-{7-[(1S)-1-carboxy-4-{4-[2-(2-ethoxyethoxy)ethoxy]phenyl}butyl]-10-[(1S)-1-carboxylato-2-hydroxyethyl]-1,4,7,10-tetraazacyclododecane-1,4-diyl}bis(3-hydroxypropanoate)] |  |  |  | 94 |  |  |  | 71 |  | >18
6 | CCOCCOCCOc1ccc(CCC[C@@H](C(=O)O)N2CCN([C@H](CO)C(=O)[O-])CCN([C@@H](CO)C(=O)[O-])CCN([C@@H](CO)C(=O)[O-])CC2)cc1.[Gd+3] [Example 50, gadolinium (2S,2'S)-2,2′-{7-[(1S)-1-carboxy-4-{4-[2-(2-ethoxyethoxy)ethoxy]phenyl}butyl]-10-[(1R)-1-carboxylato-2-hydroxyethyl]-1,4,7,10-tetraazacyclododecane-1,4-diyl}bis(3-hydroxypropanoate)] |  |  |  | 93 |  |  |  | 84 |  | >19
7 | CCOCCOCCOCCOc1ccc(C[C@@H](C(=O)O)N2CCN(CC(=O)[O-])CCN(CC(=O)[O-])CCN(CC(=O)[O-])CC2)cc1.[Gd+3] [Example 11, gadolinium 2,2′,2″-{10-[(1S)-1-carboxy-2-(4-{2-[2-(2-ethoxyethoxy)ethoxy]ethoxy}phenyl)ethyl]-1,4,7,10-tetraazacyclododecane-1,4,7-triyl}triacetate] | 6.3 | −1.68 | 16 % of RC1 | 73 | 39 % of RC1 | 93 | 154 % of RC1 | 40 | 4.3 | 
